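Where inhibition never reached the appropriate level, the endpoint shown equals the highest concentration tested. Otherwise, values were interpolated linearly from a five-concentration, 48-hour dose response in 96-well plates. The concentration for 50% growth inhibition is given as GI50.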 Active and inactive are the calls of the source. Rule as the data show it: active = GI50 up to about 1.1 µM and inactive = higher.
What was measured:
Experiment in all cases: NCI tumour cell line growth inhibition, 48 h
HCC 2998 = system: HCC 2998
SK-OV-3 = system: SK-OV-3
HT-29 = system: HT-29
SK-MEL-28 = system: SK-MEL-28
NCI-H23 = system: NCI-H23
SNB-75 = system: SNB-75
M19-MEL = system: M19-MEL
SNB-78 = system: SNB-78
SK-MEL-2 = system: SK-MEL-2
K562 = system: K562
SN12C = system: SN12C
OVCAR-3 = system: OVCAR-3
TK-10 = system: TK-10
LOX IMVI = system: LOX IMVI
HL-60 = system: HL-60
MDA-MB-231 = system: MDA-MB-231
PC-3 = system: PC-3
Hs-578T = system: Hs-578T
BT-549 = system: BT-549
MCF7 = system: MCF7

Structure (SMILES)	GI50 (HCC 2998)	GI50 (SK-OV-3)	GI50 (HT-29)	GI50 (SK-MEL-28)	GI50 (NCI-H23)	GI50 (SNB-75)	GI50 (M19-MEL)	GI50 (SNB-78)	GI50 (SK-MEL-2)	GI50 (K562)	GI50 (SN12C)	GI50 (OVCAR-3)	GI50 (TK-10)	GI50 (LOX IMVI)	GI50 (HL-60)	GI50 (MDA-MB-231)	GI50 (PC-3)	GI50 (Hs-578T)	GI50 (BT-549)	GI50 (MCF7)
COc1ccc(/C(=N/NC(N)=O)C2(O)C(=O)Nc3ccc([N+](=O)[O-])cc32)cc1 (centres undefined)	37.3 µM (inactive)	> 100 µM (inactive)	19.4 µM (inactive)	20 µM (inactive)	17 µM (inactive)	20.6 µM (inactive)	20.7 µM (inactive)	17.8 µM (inactive)	21.6 µM (inactive)	22 µM (inactive)	> 10 µM (inactive)	18.1 µM (inactive)	–	–	–	–	–	–	–	–
CN(C)[C@@H]1C(O)=C(C(N)=O)C(=O)[C@@]2(O)C(O)=C3C(=O)c4c(O)cccc4C[C@H]3C[C@@H]12	1.78 µM (inactive)	1.9 µM (inactive)	1.87 µM (inactive)	1.77 µM (inactive)	2 µM (inactive)	1.61 µM (inactive)	1.68 µM (inactive)	–	1.83 µM (inactive)	2.51 µM (inactive)	3.44 µM (inactive)	1.75 µM (inactive)	2.52 µM (inactive)	1.91 µM (inactive)	2 µM (inactive)	–	–	–	–	–
O=C1OC(CC(=O)c2ccc(Cl)cc2)C(Cl)=C1Cl (centres undefined)	> 100 µM (inactive)	> 100 µM (inactive)	> 100 µM (inactive)	> 100 µM (inactive)	> 100 µM (inactive)	> 100 µM (inactive)	> 100 µM (inactive)	–	> 100 µM (inactive)	54.6 µM (inactive)	> 100 µM (inactive)	> 100 µM (inactive)	> 100 µM (inactive)	–	26 µM (inactive)	–	–	–	–	–
CCN(CC)c1ccc2cc3ccc(N(CC)CC)cc3[o+]c2c1	4.39 µM (inactive)	6.52 µM (inactive)	0.474 µM (active)	2.56 µM (inactive)	0.946 µM (active)	5.37 µM (inactive)	–	2.43 µM (inactive)	1.34 µM (inactive)	2.82 µM (inactive)	0.832 µM (active)	0.8 µM (active)	6.08 µM (inactive)	0.6 µM (active)	0.0773 µM (active)	–	–	–	–	–
CCOC(=O)Cn1c(=O)n(C)c(=O)c2[nH]cnc21	–	> 100 µM (inactive)	> 100 µM (inactive)	> 100 µM (inactive)	> 100 µM (inactive)	> 100 µM (inactive)	> 100 µM (inactive)	> 100 µM (inactive)	> 100 µM (inactive)	> 100 µM (inactive)	> 100 µM (inactive)	> 100 µM (inactive)	> 100 µM (inactive)	–	–	–	–	–	–	–
Cc1nc2ccncc2[nH]1	> 100 µM (inactive)	–	> 100 µM (inactive)	> 100 µM (inactive)	> 100 µM (inactive)	24.8 µM (inactive)	> 100 µM (inactive)	–	> 100 µM (inactive)	> 100 µM (inactive)	> 100 µM (inactive)	> 100 µM (inactive)	> 100 µM (inactive)	> 100 µM (inactive)	> 100 µM (inactive)	–	–	–	–	–
COc1cccc(Cc2c3cc(OC)ccc3cc[n+]2C)c1	87.9 µM (inactive)	–	30.3 µM (inactive)	33.9 µM (inactive)	26.6 µM (inactive)	32.8 µM (inactive)	–	> 100 µM (inactive)	72.6 µM (inactive)	36 µM (inactive)	32.6 µM (inactive)	47.5 µM (inactive)	> 100 µM (inactive)	–	–	–	–	–	–	–
C=C=C[P+](c1ccccc1)(c1ccccc1)c1ccccc1	42.6 µM (inactive)	45.6 µM (inactive)	–	21.4 µM (inactive)	–	8.79 µM (inactive)	14.5 µM (inactive)	16.9 µM (inactive)	10.7 µM (inactive)	3.4 µM (inactive)	3.78 µM (inactive)	5.57 µM (inactive)	26.2 µM (inactive)	–	5.08 µM (inactive)	–	–	–	–	–
CC(=O)c1c(O)ccc2c1CC(CC=O)O2 (centres undefined)	> 100 µM (inactive)	> 100 µM (inactive)	37.2 µM (inactive)	> 100 µM (inactive)	53.6 µM (inactive)	42.1 µM (inactive)	40.1 µM (inactive)	64.6 µM (inactive)	–	> 100 µM (inactive)	58.9 µM (inactive)	48.5 µM (inactive)	> 100 µM (inactive)	19.9 µM (inactive)	> 100 µM (inactive)	–	–	–	–	–
NC(CCCC(N)P(=O)(O)O)P(=O)(O)O (centres undefined)	> 100 µM (inactive)	> 100 µM (inactive)	> 100 µM (inactive)	> 100 µM (inactive)	> 100 µM (inactive)	> 100 µM (inactive)	> 100 µM (inactive)	> 100 µM (inactive)	–	> 100 µM (inactive)	> 100 µM (inactive)	> 100 µM (inactive)	> 100 µM (inactive)	> 100 µM (inactive)	–	–	–	–	–	–
Cc1c(C(=O)CC(=O)C(=O)Nc2ccccc2C(F)(F)F)[n+]([O-])c2ccccc2[n+]1[O-]	13.4 µM (inactive)	25.5 µM (inactive)	18.5 µM (inactive)	27.4 µM (inactive)	17.4 µM (inactive)	–	–	47.2 µM (inactive)	19.8 µM (inactive)	22 µM (inactive)	22.2 µM (inactive)	2.63 µM (inactive)	46.8 µM (inactive)	18.7 µM (inactive)	28.2 µM (inactive)	–	–	–	–	–
O=c1nc(NC(c2ccccc2)(c2ccccc2)c2ccccc2)ccn1CCO	> 100 µM (inactive)	–	60 µM (inactive)	> 100 µM (inactive)	> 100 µM (inactive)	40.8 µM (inactive)	–	> 100 µM (inactive)	> 100 µM (inactive)	58.7 µM (inactive)	88.7 µM (inactive)	40.2 µM (inactive)	> 100 µM (inactive)	75.9 µM (inactive)	41 µM (inactive)	–	–	–	–	–
O=P(Oc1ccccc1)(Oc1ccccc1)Oc1c[nH]c2ccccc12	1.95 µM (inactive)	3.44 µM (inactive)	6.07 µM (inactive)	12.7 µM (inactive)	10.1 µM (inactive)	10.8 µM (inactive)	–	–	5.47 µM (inactive)	10.7 µM (inactive)	11.6 µM (inactive)	14.5 µM (inactive)	12.1 µM (inactive)	14.6 µM (inactive)	21.7 µM (inactive)	11.4 µM (inactive)	0.847 µM (active)	13.3 µM (inactive)	17 µM (inactive)	11 µM (inactive)
NC1=NCC(CN2CCOCC2)O1 (centres undefined)	> 100 µM (inactive)	> 100 µM (inactive)	> 100 µM (inactive)	> 100 µM (inactive)	> 100 µM (inactive)	62.2 µM (inactive)	–	–	> 100 µM (inactive)	> 100 µM (inactive)	> 100 µM (inactive)	> 100 µM (inactive)	> 100 µM (inactive)	> 100 µM (inactive)	> 100 µM (inactive)	> 100 µM (inactive)	> 100 µM (inactive)	> 100 µM (inactive)	> 100 µM (inactive)	> 100 µM (inactive)
CC12CCC(=O)N1[C@@H](c1ccccc1)[C@@H](c1ccccc1)O2 (some centres undefined)	> 100 µM (inactive)	68.9 µM (inactive)	> 100 µM (inactive)	–	–	> 100 µM (inactive)	> 100 µM (inactive)	–	> 100 µM (inactive)	> 100 µM (inactive)	> 100 µM (inactive)	> 100 µM (inactive)	–	> 100 µM (inactive)	> 100 µM (inactive)	–	–	–	–	–
COc1ccc(/C=C(/c2ccc(OC)cc2)c2c(Cl)cc(Cl)c(/C(=C\c3ccc(OC)cc3)c3ccc(OC)cc3)c2/N=N/c2ccccc2)cc1	> 100 µM (inactive)	> 100 µM (inactive)	> 100 µM (inactive)	> 100 µM (inactive)	> 100 µM (inactive)	> 100 µM (inactive)	–	–	> 100 µM (inactive)	45.1 µM (inactive)	> 100 µM (inactive)	> 100 µM (inactive)	> 100 µM (inactive)	> 100 µM (inactive)	> 100 µM (inactive)	> 100 µM (inactive)	> 100 µM (inactive)	> 100 µM (inactive)	> 100 µM (inactive)	62.1 µM (inactive)
Cc1cc(=O)n2c3c(c4c(cc13)c(CO)cc(=O)n4C)OC2	14.8 µM (inactive)	20 µM (inactive)	19.5 µM (inactive)	18.8 µM (inactive)	13.5 µM (inactive)	19.9 µM (inactive)	12.2 µM (inactive)	15 µM (inactive)	7.46 µM (inactive)	5.56 µM (inactive)	12.9 µM (inactive)	11.8 µM (inactive)	11.8 µM (inactive)	6.85 µM (inactive)	–	–	–	–	–	–
Brc1ccc(C[N+]23CN4CN(CN(C4)C2)C3)cc1	47.1 µM (inactive)	> 100 µM (inactive)	–	31.3 µM (inactive)	29.1 µM (inactive)	> 100 µM (inactive)	41.8 µM (inactive)	83.2 µM (inactive)	–	25.4 µM (inactive)	24 µM (inactive)	73.1 µM (inactive)	> 100 µM (inactive)	18.8 µM (inactive)	10.4 µM (inactive)	–	–	–	–	–
CSc1c(C#N)c(N)n(-c2ccc(Cl)cc2)c(=O)c1C#N	> 100 µM (inactive)	> 100 µM (inactive)	> 100 µM (inactive)	> 100 µM (inactive)	> 100 µM (inactive)	78 µM (inactive)	–	–	> 100 µM (inactive)	> 100 µM (inactive)	> 100 µM (inactive)	> 100 µM (inactive)	> 100 µM (inactive)	> 100 µM (inactive)	46.3 µM (inactive)	> 100 µM (inactive)	> 100 µM (inactive)	> 100 µM (inactive)	> 100 µM (inactive)	> 100 µM (inactive)

Reference: ChEMBL document CHEMBL1201862, “PubChem BioAssay data set” (2004)
